How the values were obtained:
Experiment in all cases: relative viability (nuclei count vs DMSO), 5 days (fraction); higher = more cells survive
[1] = tested on: ABC-1
How it was run: (§1)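 After 5 days of treatment, lung cancer cells in 1536-well plates were fixed and stained in a single step (final 0.05% Triton X-100, 1% formaldehyde, 1 ug/ml Hoechst) and their nuclei counted on 4× images. Treatment had been applied by pin tool the day after seeding as one drug alone or as a fixed anchor-drug dose with five library-drug doses (not always all listed) in √10 steps. Relative viability is the nuclei count of treated wells divided by that of vehicle wells, and values are medians of duplicate plates.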

[2] = tested on: CAL-12T
How it was run: as §1

[3] = tested on: COR-L 105
How it was run: as §1

[4] = tested on: ChaGo-K-1
How it was run: as §1

[5] = tested on: EMC-BAC-2
How it was run: as §1

[6] = tested on: EPLC-272H
How it was run: as §1

[7] = tested on: HCC-15
How it was run: as §1

[8] = tested on: HCC-78
How it was run: as §1

[9] = tested on: HOP-62
How it was run: as §1

[10] = tested on: LXF-289
How it was run: as §1

[11] = tested on: NCI-H1666
How it was run: as §1

[12] = tested on: NCI-H1755
How it was run: as §1

[13] = tested on: NCI-H1915
How it was run: as §1

[14] = tested on: NCI-H1975
How it was run: as §1

[15] = tested on: NCI-H1993
How it was run: as §1

[16] = tested on: NCI-H2023
How it was run: as §1

[17] = tested on: NCI-H2085
How it was run: as §1

[18] = tested on: NCI-H2126
How it was run: as §1

[19] = tested on: NCI-H3122
How it was run: as §1

[20] = tested on: NCI-H322M
How it was run: as §1

[21] = tested on: NCI-H358
How it was run: as §1

[22] = tested on: NCI-H441
How it was run: as §1

[23] = tested on: NCI-H522
How it was run: as §1

[24] = tested on: UMC-11
How it was run: as §1

COc1cc(N2CCC(C(N)=O)CC2)ccc1Nc1nc(N)c(Cl)c(Nc2ccccc2S(=O)(=O)C(C)C)n1 [HG-5-88-01] + Cc1nc(Nc2ncc(C(=O)Nc3c(C)cccc3Cl)s2)cc(N2CCN(CCO)CC2)n1 [Dasatinib] (partner 0.075 µM)
relative viability ([1]; first compound 0.04 µM): 0.5
relative viability ([1]; first compound 0.1265 µM): 0.583
relative viability ([1]; first compound 0.4 µM): 0.389
relative viability ([1]; first compound 1.265 µM): 0.457
relative viability ([1]; first compound 4 µM): 0.304
relative viability ([2]; first compound 0.04 µM): 0.382
relative viability ([2]; first compound 0.1265 µM): 0.36
relative viability ([2]; first compound 0.4 µM): 0.154
relative viability ([2]; first compound 1.265 µM): 0.0794
relative viability ([2]; first compound 4 µM): 0.0951
relative viability ([3]; first compound 0.04 µM): 0.305
relative viability ([3]; first compound 0.1265 µM): 0.314
relative viability ([3]; first compound 0.4 µM): 0.254
relative viability ([3]; first compound 1.265 µM): 0.203
relative viability ([3]; first compound 4 µM): 0.19
relative viability ([4]; first compound 0.04 µM): 0.776
relative viability ([4]; first compound 0.1265 µM): 0.63
relative viability ([4]; first compound 0.4 µM): 0.509
relative viability ([4]; first compound 1.265 µM): 0.57
relative viability ([4]; first compound 4 µM): 0.401
relative viability ([5]; first compound 0.04 µM): 0.31
relative viability ([5]; first compound 0.1265 µM): 0.343
relative viability ([5]; first compound 0.4 µM): 0.217
relative viability ([5]; first compound 1.265 µM): 0.243
relative viability ([5]; first compound 4 µM): 0.218
relative viability ([6]; first compound 0.04 µM): 0.49
relative viability ([6]; first compound 0.1265 µM): 0.31
relative viability ([6]; first compound 0.4 µM): 0.226
relative viability ([6]; first compound 1.265 µM): 0.121
relative viability ([6]; first compound 4 µM): 0.0712
relative viability ([7]; first compound 0.04 µM): 0.669
relative viability ([7]; first compound 0.1265 µM): 0.59
relative viability ([7]; first compound 0.4 µM): 0.416
relative viability ([7]; first compound 1.265 µM): 0.397
relative viability ([7]; first compound 4 µM): 0.347
relative viability ([8]; first compound 0.04 µM): 0.356
relative viability ([8]; first compound 0.1265 µM): 0.286
relative viability ([8]; first compound 0.4 µM): 0.22
relative viability ([8]; first compound 1.265 µM): 0.197
relative viability ([8]; first compound 4 µM): 0.174
relative viability ([9]; first compound 0.04 µM): 0.682
relative viability ([9]; first compound 0.1265 µM): 0.606
relative viability ([9]; first compound 0.4 µM): 0.487
relative viability ([9]; first compound 1.265 µM): 0.444
relative viability ([9]; first compound 4 µM): 0.253
relative viability ([10]; first compound 0.04 µM): 0.252
relative viability ([10]; first compound 0.1265 µM): 0.198
relative viability ([10]; first compound 0.4 µM): 0.116
relative viability ([10]; first compound 1.265 µM): 0.132
relative viability ([10]; first compound 4 µM): 0.11
relative viability ([11]; first compound 0.04 µM): 0.873
relative viability ([11]; first compound 0.1265 µM): 0.837
relative viability ([11]; first compound 0.4 µM): 0.643
relative viability ([11]; first compound 1.265 µM): 0.539
relative viability ([11]; first compound 4 µM): 0.389
relative viability ([12]; first compound 0.04 µM): 0.459
relative viability ([12]; first compound 0.1265 µM): 0.514
relative viability ([12]; first compound 0.4 µM): 0.369
relative viability ([12]; first compound 1.265 µM): 0.29
relative viability ([12]; first compound 4 µM): 0.15
relative viability ([13]; first compound 0.04 µM): 0.347
relative viability ([13]; first compound 0.1265 µM): 0.316
relative viability ([13]; first compound 0.4 µM): 0.295
relative viability ([13]; first compound 1.265 µM): 0.314
relative viability ([13]; first compound 4 µM): 0.239
relative viability ([14]; first compound 0.04 µM): 0.358
relative viability ([14]; first compound 0.1265 µM): 0.352
relative viability ([14]; first compound 0.4 µM): 0.284
relative viability ([14]; first compound 1.265 µM): 0.217
relative viability ([14]; first compound 4 µM): 0.145
relative viability ([15]; first compound 0.04 µM): 0.633
relative viability ([15]; first compound 0.1265 µM): 0.569
relative viability ([15]; first compound 0.4 µM): 0.502
relative viability ([15]; first compound 1.265 µM): 0.475
relative viability ([15]; first compound 4 µM): 0.581
relative viability ([16]; first compound 0.04 µM): 0.646
relative viability ([16]; first compound 0.1265 µM): 0.515
relative viability ([16]; first compound 0.4 µM): 0.318
relative viability ([16]; first compound 1.265 µM): 0.196
relative viability ([16]; first compound 4 µM): 0.207
relative viability ([17]; first compound 0.04 µM): 0.296
relative viability ([17]; first compound 0.1265 µM): 0.242
relative viability ([17]; first compound 0.4 µM): 0.24
relative viability ([17]; first compound 1.265 µM): 0.186
relative viability ([17]; first compound 4 µM): 0.163
relative viability ([18]; first compound 0.04 µM): 0.617
relative viability ([18]; first compound 0.1265 µM): 0.565
relative viability ([18]; first compound 0.4 µM): 0.449
relative viability ([18]; first compound 1.265 µM): 0.34
relative viability ([18]; first compound 4 µM): 0.259
relative viability ([19]; first compound 0.04 µM): 0.542
relative viability ([19]; first compound 0.1265 µM): 0.209
relative viability ([19]; first compound 0.4 µM): 0.149
relative viability ([19]; first compound 1.265 µM): 0.161
relative viability ([19]; first compound 4 µM): 0.109
relative viability ([20]; first compound 0.04 µM): 0.247
relative viability ([20]; first compound 0.1265 µM): 0.194
relative viability ([20]; first compound 0.4 µM): 0.189
relative viability ([20]; first compound 4 µM): 0.216
relative viability ([21]; first compound 0.04 µM): 0.142
relative viability ([21]; first compound 0.1265 µM): 0.153
relative viability ([21]; first compound 0.4 µM): 0.164
relative viability ([21]; first compound 1.265 µM): 0.11
relative viability ([21]; first compound 4 µM): 0.138
relative viability ([22]; first compound 0.04 µM): 0.601
relative viability ([22]; first compound 0.1265 µM): 0.625
relative viability ([22]; first compound 0.4 µM): 0.31
relative viability ([22]; first compound 1.265 µM): 0.314
relative viability ([22]; first compound 4 µM): 0.231
relative viability ([23]; first compound 0.04 µM): 1.02
relative viability ([23]; first compound 0.1265 µM): 0.897
relative viability ([23]; first compound 0.4 µM): 0.813
relative viability ([23]; first compound 1.265 µM): 0.781
relative viability ([23]; first compound 4 µM): 0.849
relative viability ([24]; first compound 0.04 µM): 0.434
relative viability ([24]; first compound 0.1265 µM): 0.449
relative viability ([24]; first compound 1.265 µM): 0.469
relative viability ([24]; first compound 4 µM): 0.409
